Legend:
[1] = test system: normal NK cells expanded with K562-aAPC; experiment: percent inhibition of viability; higher = more inhibition; conditions: 72 h, IL-2 2.5 ng/mL
Protocol: (§1)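 Drug sensitivity and resistance testing on K562-aAPC-expanded normal NK cells: 5 concentrations (10-fold steps over a 10,000-fold range), 72 h at 37 °C, viability by CellTiter-Glo normalised to DMSO and benzethonium chloride controls; DSS from the fitted curve.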

[2] = test system: normal primary NK cells, pool 1 (3 donors), resting (IL-2 0 ng/mL); experiment: drug sensitivity score (DSS) (DSS units); higher = more sensitive; extreme values may be limits of the assay; conditions: 72 h
DERL-7 (IL-2 2.5 ng/mL) [3] = experiment: as above; conditions: 72 h
[4] = test system: normal primary NK cells, pool 3 (3 donors) (IL-2 2.5 ng/mL); experiment: as above; conditions: 72 h
KAI3 (IL-2 2.5 ng/mL) [5] = experiment: as above; conditions: 72 h
YT (IL-2 2.5 ng/mL) [6] = experiment: as above; conditions: 72 h
KHYG-1 (IL-2 2.5 ng/mL) [7] = experiment: as above; conditions: 72 h
NK-92 (IL-2 2.5 ng/mL) [8] = experiment: as above; conditions: 72 h
SNK-6 (IL-2 2.5 ng/mL) [9] = experiment: as above; conditions: 72 h
[10] = test system: normal primary NK cells, pool 2 (3 donors) (IL-2 2.5 ng/mL); experiment: as above; conditions: 72 h
NKL (IL-2 2.5 ng/mL) [11] = experiment: as above; conditions: 72 h
NK-YS (IL-2 2.5 ng/mL) [12] = experiment: as above; conditions: 72 h
IMC-1 (IL-2 20 ng/mL) [13] = experiment: as above; conditions: 72 h
[14] = test system: normal primary NK cells, pool 1 (3 donors) (IL-2 2.5 ng/mL); experiment: as above; conditions: 72 h
[15] = test system: normal primary NK cells, pool 1 (3 donors), resting (IL-2 0 ng/mL); experiment: percent inhibition of viability; higher = more inhibition; conditions: 72 h
DERL-7 (IL-2 2.5 ng/mL) [16] = experiment: as above; conditions: 72 h
[17] = test system: normal primary NK cells, pool 3 (3 donors) (IL-2 2.5 ng/mL); experiment: as above; conditions: 72 h
KAI3 (IL-2 2.5 ng/mL) [18] = experiment: as above; conditions: 72 h
YT (IL-2 2.5 ng/mL) [19] = experiment: as above; conditions: 72 h
KHYG-1 (IL-2 2.5 ng/mL) [20] = experiment: as above; conditions: 72 h
NK-92 (IL-2 2.5 ng/mL) [21] = experiment: as above; conditions: 72 h
SNK-6 (IL-2 2.5 ng/mL) [22] = experiment: as above; conditions: 72 h
[23] = test system: normal primary NK cells, pool 2 (3 donors) (IL-2 2.5 ng/mL); experiment: as above; conditions: 72 h
NKL (IL-2 2.5 ng/mL) [24] = experiment: as above; conditions: 72 h
NK-YS (IL-2 2.5 ng/mL) [25] = experiment: as above; conditions: 72 h
IMC-1 (IL-2 20 ng/mL) [26] = experiment: as above; conditions: 72 h
[27] = test system: normal primary NK cells, pool 1 (3 donors) (IL-2 2.5 ng/mL); experiment: as above; conditions: 72 h
[28] = test system: normal NK cells expanded with K562-aAPC; experiment: drug sensitivity score (DSS) (DSS units); higher = more sensitive; extreme values may be limits of the assay; conditions: 72 h; IL-2 2.5 ng/mL
Protocol: as §1

COC[C@H](NC(=O)c1cnc(C)s1)C(=O)N[C@@H](COC)C(=O)N[C@@H](Cc1ccccc1)C(=O)[C@@]1(C)CO1 [Oprozomib] (max concentration tested 2500 nM)
percent inhibition of viability [%]
Conditions | 0.25 nM | 2.5 nM | 25 nM | 250 nM | 2500 nM
DERL-7 (IL-2 2.5 ng/mL) [16] | -5.62 | 7.77 | 81.9 | 101 | 101
IMC-1 (IL-2 20 ng/mL) [26] | -7.29 | -3.63 | 0.39 | 101 | 101
KAI3 (IL-2 2.5 ng/mL) [18] | -8.21 | -2.86 | 52.1 | 105 | 108
KHYG-1 (IL-2 2.5 ng/mL) [20] | -7.33 | -2.59 | 15.4 | 108 | 110
NK-92 (IL-2 2.5 ng/mL) [21] | -20.8 | 3.65 | 34.1 | 107 | 110
NK-YS (IL-2 2.5 ng/mL) [25] | -6.41 | -1.88 | 43.6 | 106 | 109
NKL (IL-2 2.5 ng/mL) [24] | -18 | -8.51 | 12.1 | 107 | 110
SNK-6 (IL-2 2.5 ng/mL) [22] | -7.89 | -7.58 | 14.6 | 101 | 101
YT (IL-2 2.5 ng/mL) [19] | -8.11 | -6.26 | 14.6 | 106 | 110
[1] | -1.45 | 0.37 | 40.2 | 101 | 102
[15] | -25.2 | 0.23 | 62.4 | 92.9 | 97.7
[17] | -7.05 | -2.21 | 50.4 | 99 | 100
[23] | -5.27 | 3.49 | 62.8 | 94.6 | 99.5
[27] | -9.35 | 5.43 | 36 | 97.7 | 99.8

Conditions | drug sensitivity score
DERL-7 (IL-2 2.5 ng/mL) [3] | 28.6
IMC-1 (IL-2 20 ng/mL) [13] | 18.1
KAI3 (IL-2 2.5 ng/mL) [5] | 24.4
KHYG-1 (IL-2 2.5 ng/mL) [7] | 20.7
NK-92 (IL-2 2.5 ng/mL) [8] | 22.8
NK-YS (IL-2 2.5 ng/mL) [12] | 23.7
NKL (IL-2 2.5 ng/mL) [11] | 20.2
SNK-6 (IL-2 2.5 ng/mL) [9] | 20.4
YT (IL-2 2.5 ng/mL) [6] | 20.6
[2] | 25
[4] | 24.2
[10] | 25.4
[14] | 22
[28] | 23.4

Cc1c(CN2CCN(C(=O)[C@H](C)O)CC2)sc2c(N3CCOCC3)nc(-c3cnc(N)nc3)nc12 [Apitolisib] (max concentration tested 10000 nM)
percent inhibition of viability [%]
Conditions | 1 nM | 10 nM | 100 nM | 1000 nM | 10000 nM
DERL-7 (IL-2 2.5 ng/mL) [16] | 3.04 | 1.57 | 29.2 | 78.4 | 92.4
IMC-1 (IL-2 20 ng/mL) [26] | -4.85 | -5.41 | -12.6 | -55.2 | 8.81
KAI3 (IL-2 2.5 ng/mL) [18] | 0.17 | -2.02 | 17.9 | 39.6 | 65.3
KHYG-1 (IL-2 2.5 ng/mL) [20] | -2.58 | -0.95 | -1.53 | 18 | 76.4
NK-92 (IL-2 2.5 ng/mL) [21] | 16 | 7.33 | 22.5 | 45.1 | 57.8
NK-YS (IL-2 2.5 ng/mL) [25] | -2.41 | 1.63 | 8.5 | 47.2 | 73.8
NKL (IL-2 2.5 ng/mL) [24] | -12 | -7.01 | 2.26 | 53.8 | 65.7
SNK-6 (IL-2 2.5 ng/mL) [22] | 13.8 | 9.78 | 15.2 | 21.3 | 45.5
YT (IL-2 2.5 ng/mL) [19] | 0.06 | 0.22 | 4.58 | 47.5 | 71
[1] | 2.46 | -0.12 | 17.4 | 39.8 | 85.8
[15] | -0.63 | -14.4 | -6.11 | 24.3 | 34.8
[17] | -10.7 | -12.9 | -5.47 | 6.17 | 59.6
[23] | -13.9 | -6.6 | 0.47 | 22.1 | 66.1
[27] | -11.8 | -13.1 | 4.5 | 40.1 | 75

Conditions | drug sensitivity score
DERL-7 (IL-2 2.5 ng/mL) [3] | 18
IMC-1 (IL-2 20 ng/mL) [13] | 0
KAI3 (IL-2 2.5 ng/mL) [5] | 9.5
KHYG-1 (IL-2 2.5 ng/mL) [7] | 7.06
NK-92 (IL-2 2.5 ng/mL) [8] | 11.3
NK-YS (IL-2 2.5 ng/mL) [12] | 10.2
NKL (IL-2 2.5 ng/mL) [11] | 10.3
SNK-6 (IL-2 2.5 ng/mL) [9] | 6.63
YT (IL-2 2.5 ng/mL) [6] | 9.84
[2] | 4.44
[4] | 4.24
[10] | 6.81
[14] | 8.91
[28] | 10

CN1CCN(c2nc(C3=C(c4c[nH]c5ccccc45)C(=O)NC3=O)c3ccccc3n2)CC1 [Sotrastaurin] (max concentration tested 10000 nM)
percent inhibition of viability [%]
Conditions | 1 nM | 10 nM | 100 nM | 1000 nM | 10000 nM
DERL-7 (IL-2 2.5 ng/mL) [16] | -4.78 | -0.35 | 2.08 | 40.8 | 89
IMC-1 (IL-2 20 ng/mL) [26] | -5.62 | -0.79 | -3.9 | 0.37 | 14.4
KAI3 (IL-2 2.5 ng/mL) [18] | 1.68 | 5.93 | 0.83 | 15.7 | 68.5
KHYG-1 (IL-2 2.5 ng/mL) [20] | -1.7 | 2.28 | 1.66 | 16.2 | 86.7
NK-92 (IL-2 2.5 ng/mL) [21] | -7.26 | -8.85 | -22.3 | 14.4 | 67.9
NK-YS (IL-2 2.5 ng/mL) [25] | -6.15 | -1.7 | 5.97 | 11.9 | 48.6
NKL (IL-2 2.5 ng/mL) [24] | -0.06 | 2.68 | 21.7 | 45.5 | 80
SNK-6 (IL-2 2.5 ng/mL) [22] | -17.8 | -16.5 | -5.18 | -2.38 | 44.5
YT (IL-2 2.5 ng/mL) [19] | -2.44 | 0.13 | 0.38 | 16.3 | 34.6
[1] | -1.03 | -1.43 | 5.74 | 19.1 | 54.6
[15] | -32.7 | 2.96 | -3.23 | 9.18 | -53.6
[17] | -3.26 | -0.15 | 8.22 | 5.07 | 38.6
[23] | -13.5 | -3.77 | 5.41 | 15.2 | 41.4
[27] | -5.39 | 7.06 | 18.6 | 27.9 | 44.3

Conditions | drug sensitivity score
DERL-7 (IL-2 2.5 ng/mL) [3] | 9.93
IMC-1 (IL-2 20 ng/mL) [13] | 0.22
KAI3 (IL-2 2.5 ng/mL) [5] | 6.26
KHYG-1 (IL-2 2.5 ng/mL) [7] | 7.45
NK-92 (IL-2 2.5 ng/mL) [8] | 6.04
NK-YS (IL-2 2.5 ng/mL) [12] | 4.32
NKL (IL-2 2.5 ng/mL) [11] | 11.4
SNK-6 (IL-2 2.5 ng/mL) [9] | 2.08
YT (IL-2 2.5 ng/mL) [6] | 3.65
[2] | 0
[4] | 2.75
[10] | 3.66
[14] | 7.19
[28] | 5.13

Reference: the supplement of paper PMC5908809
